Experiments:
human NaP2b (SLC34A2) = target: T1, human NaP2b (SLC34A2) (Homo sapiens, UniProt O95436); experiment: Inhibition of NaP2b-mediated Pi (33P) uptake in transfected HEK293 cells, human NaP2b; assay type: cell-based; settings: read-out: pIC50 range for human NaP2b (converted)
T1 construct: host or cells: HEK293
T1 sequence (O95436 1-690): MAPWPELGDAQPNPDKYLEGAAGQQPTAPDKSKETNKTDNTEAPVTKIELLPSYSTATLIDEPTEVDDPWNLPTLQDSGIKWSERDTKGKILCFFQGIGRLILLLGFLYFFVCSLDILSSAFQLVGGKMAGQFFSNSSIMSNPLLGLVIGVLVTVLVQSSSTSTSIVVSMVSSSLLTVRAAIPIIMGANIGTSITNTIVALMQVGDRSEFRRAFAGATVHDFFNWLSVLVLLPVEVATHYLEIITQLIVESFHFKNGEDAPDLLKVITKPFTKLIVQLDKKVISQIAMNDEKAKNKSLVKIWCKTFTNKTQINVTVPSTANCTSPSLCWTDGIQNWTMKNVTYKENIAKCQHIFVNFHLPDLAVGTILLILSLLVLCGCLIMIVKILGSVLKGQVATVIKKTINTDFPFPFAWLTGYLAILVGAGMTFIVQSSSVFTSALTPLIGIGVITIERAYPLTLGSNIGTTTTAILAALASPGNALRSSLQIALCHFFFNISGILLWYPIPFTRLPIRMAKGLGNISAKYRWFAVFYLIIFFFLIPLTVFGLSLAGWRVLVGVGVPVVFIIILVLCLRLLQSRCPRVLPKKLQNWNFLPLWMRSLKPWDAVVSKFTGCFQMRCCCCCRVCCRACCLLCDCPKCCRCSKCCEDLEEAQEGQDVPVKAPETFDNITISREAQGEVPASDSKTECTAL
Outline: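 Uptake of 33P-phosphate (100 uM KH2PO4 carrier, sodium vs choline buffer, pH 7.4) measured after 3-30 min at room temperature, with test compound at twelve concentrations from 0.1 nM to 30 uM in duplicate. Cells were HEK293 transfected with mutated human NaP2b (Thr insertion after 37, N39D) and treated with a PiT-silencing agent. pIC50 values from scintillation counts.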

[1] = Stability of compounds in simulated intestinal fluid (SIF); assay type: in vitro ADME; settings: simulated intestinal fluid (3 mg/mL pancreatin), incubation time 6 hr, relative to t=0
Outline: (§1)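 Compounds at […] were incubated 3 or 6 hr in USP simulated gastric fluid with 3 mg/mL pepsin or simulated intestinal fluid with 3 mg/mL pancreatin. Remaining compound was quantified by HPLC-UV or HPLC-MS peak area % and reported as percent of the t=0 level in the same medium.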

[2] = Stability of compounds in simulated gastric fluid (SGF); assay type: in vitro ADME; settings: simulated gastric fluid (3 mg/mL pepsin), incubation time 6 hr, relative to t=0
Outline: as §1

[3] = Determination of compound Cmax and AUC after oral gavage (plasma LC-MS/MS); assay type: in vivo, Sprague-Dawley rats; settings: Sprague-Dawley, rat, plasma, po, Structure (I) examples
Outline: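 Plasma exposure measured by LC-MS/MS after acetonitrile precipitation with internal standard, quantified against a standard curve made in plasma. Compound given orally by gavage to Sprague-Dawley rats at nominal 2.5 or 10 mg/kg, with K2EDTA plasma sampled at 0.5, 1, 2 and 4 h.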

rat NaP2b (SLC34A2) = target: T2, rat NaP2b (SLC34A2) (Rattus norvegicus, UniProt Q9JJ09); experiment: Inhibition of NaP2b-mediated Pi (33P) uptake in transfected HEK293 cells, rat NaP2b; assay type: cell-based; settings: 33P Pi uptake, 0.1 mM phosphate, value given as pIC50 range
T2 construct: host or cells: HEK293
T2 sequence (Q9JJ09 1-695): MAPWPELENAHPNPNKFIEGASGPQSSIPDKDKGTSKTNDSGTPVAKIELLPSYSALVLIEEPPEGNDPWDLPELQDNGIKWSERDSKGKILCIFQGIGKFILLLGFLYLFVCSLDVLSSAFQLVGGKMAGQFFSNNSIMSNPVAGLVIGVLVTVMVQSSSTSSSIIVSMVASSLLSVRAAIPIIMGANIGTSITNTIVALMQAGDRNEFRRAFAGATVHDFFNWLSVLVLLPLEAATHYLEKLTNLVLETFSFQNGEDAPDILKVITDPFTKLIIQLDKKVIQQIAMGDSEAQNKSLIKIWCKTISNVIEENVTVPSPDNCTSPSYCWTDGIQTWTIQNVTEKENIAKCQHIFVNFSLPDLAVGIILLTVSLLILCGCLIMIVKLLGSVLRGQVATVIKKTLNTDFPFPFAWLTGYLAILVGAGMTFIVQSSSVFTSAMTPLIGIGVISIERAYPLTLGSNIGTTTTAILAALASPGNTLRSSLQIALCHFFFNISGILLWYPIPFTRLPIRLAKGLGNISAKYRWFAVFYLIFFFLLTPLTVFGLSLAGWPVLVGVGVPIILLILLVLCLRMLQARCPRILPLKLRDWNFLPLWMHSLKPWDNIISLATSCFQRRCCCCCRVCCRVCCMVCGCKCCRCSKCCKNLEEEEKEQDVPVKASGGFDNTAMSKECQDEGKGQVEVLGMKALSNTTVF
Outline: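 The cells transiently expressed NaP2b after Lipofectamine transfection. Each compound was run in duplicate over twelve concentrations, 0.1 nM–30 uM.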

[4] = Table 15, actual oral dose 3-15 mg/kg, plasma 0.5-4 h
[5] = Table 15, actual oral dose 15-40 mg/kg, plasma 0.5-4 h

Row | SMILES | IC50 (human NaP2b (SLC34A2)) [nM] | % remaining, SIF [1] | % remaining, SGF [2] | AUC [3, 4] [ng·h/mL] | Cmax [3, 4] [ng/mL] | IC50 (rat NaP2b (SLC34A2)) [nM] | AUC [3, 5] [ng·h/mL] | Cmax ([3]; Table 15, plasma 0.5-4 h) [ng/mL]
1 | CN(CCCN1CCOCC1)C(=O)c1cccc(C(=O)Nc2ccc(N3CCCCC3)cc2-c2cc(C(=O)N[C@H]3CCCc4ccccc43)ccn2)c1 [Example 126, (S)—N1-methyl-N1-(3-morpholinopropyl)-N3-(4-(piperidin-1-yl)-2-(4-(1,2,3,4-tetrahydronaphthalen-1-ylcarbamoyl)pyridin-2-yl)phenyl)isophthalamide] | 1000 to 7940 | >80% | >80% | < 30 | < 10 | < 1000 | – | –
2 | CCN(CC)c1ccc(NC(=O)c2cccc(CSCCOCCOCCOCCOCCC(=O)NC(CO)(CO)CO)c2)c(-c2cc(C(=O)N[C@H]3CCCc4ccccc43)ccn2)c1 [Example 158, (S)-2-(5-(diethylamino)-2-(3-(20-hydroxy-19,19-bis(hydroxymethyl)-17-oxo-5,8,11,14-tetraoxa-2-thia-18-azaicosyl)benzamido)phenyl)-N-(1,2,3,4-tetrahydronaphthalen-1-yl)isonicotinamide] | < 1000 | 20-40% | >80% | < 10 | < 10 | < 1000 | – | –
3 | CCN(CC)c1ccc(NC(=O)c2cccc(CSCCOCCOCCOCCOCCC(=O)N(CCO)CCO)c2)c(-c2cc(C(=O)N[C@H]3CCCc4ccccc43)ccn2)c1 [Example 160, (S)-2-(5-(diethylamino)-2-(3-(20-hydroxy-18-(2-hydroxyethyl)-17-oxo-5,8,11,14-tetraoxa-2-thia-18-azaicosyl)benzamido)phenyl)-N-(1,2,3,4-tetrahydronaphthalen-1-yl)isonicotinamide] | < 1000 | 40-60% | >80% | < 10 | < 10 | < 1000 | – | –
4 | CCN(CC)c1ccc(NC(=O)c2cccc(C(=O)N(C)CCN3CCC[C@H]3C(=O)NCCOCCOCCOCCOCCOCCOCCOCCOC)c2)c(-c2cc(C(=O)N[C@H]3CCCc4ccccc43)ccn2)c1 [Example 196, N^1-(2-((S)-2-(2,5,8,11,14,17,20,23-octaoxapentacosan-25-ylcarbamoyl)pyrrolidin-1-yl)ethyl)-N^3-(4-(diethylamino)-2-(4-(((S)-1,2,3,4-tetrahydronaphthalen-1-yl)carbamoyl)pyridin-2-yl)phenyl)-N-methylisophthalamide] | 1000 to 7940 | >80% | >80% | > 50 | > 50 | 1000 to 7940 | – | –
5 | COCCOCCOCCOCCOCCOCCOCCOCCOCc1cccc(C(=O)Nc2ccc(OC3CCC3)cc2-c2cc(C(=O)NCc3cccc(C(F)(F)F)c3)ccn2)c1 [Example 202, 2-(2-(3-(2,5,8,11,14,17,20,23,26-nonaoxaheptacosyl)benzamido)-5-cyclobutoxyphenyl)-N-(3-(trifluoromethyl)benzyl)isonicotinamide] | < 1000 | >80% | >80% | – | – | 1000 to 7940 | – | –
6 | COCCOCCOCCOCCOCCOCCOCCOCCOCc1cccc(C(=O)Nc2ccc(OC3CCC3)cc2-c2cc(C(=O)N[C@H]3CCCc4ccccc43)ccn2)c1 [Example 205, (S)-2-(2-(3-(2,5,8,11,14,17,20,23,26-nonaoxaheptacosyl)benzamido)-5-cyclobutoxyphenyl)-N-(1,2,3,4-tetrahydronaphthalen-1-yl)isonicotinamide] | < 1000 | >80% | >80% | – | – | < 1000 | – | –
7 | COCCOCCOCCOCCOCCOCCOCCOCCNC(=O)CCOCCOCCOCCOCCCc1cccc(C(=O)Nc2ccc(N3CCCCC3)cc2-c2cc(C(=O)NCc3cccc(C(F)(F)F)c3)ccn2)c1 [Example 275] | 1000 to 7940 | >80% | >80% | – | – | 1000 to 7940 | – | –
8 | CCN(CC)c1ccc(NC(=O)c2cccc(C(=O)N(C)CCN(CCOC)CCOCCOCCOCCOCCOCCOCCOC)c2)c(-c2cc(C(=O)N[C@H]3CCCc4ccccc43)ccn2)c1 [Example 328, (S)—N1-(4-(diethylamino)-2-(4-(1,2,3,4-tetrahydronaphthalen-1-ylcarbamoyl)pyridin-2-yl)phenyl)-N3-(23-(2-methoxyethyl)-2,5,8,11,14,17,20-heptaoxa-23-azapentacosan-25-yl)-N3-methylisophthalamide] | 1000 to 7940 | >80% | >80% | – | – | 1000 to 7940 | – | –

Continued, values first:

Row | IC50 (human NaP2b (SLC34A2)) [nM] | % remaining, SIF [1] | % remaining, SGF [2] | AUC [3, 4] [ng·h/mL] | Cmax [3, 4] [ng/mL] | IC50 (rat NaP2b (SLC34A2)) [nM] | AUC [3, 5] [ng·h/mL] | Cmax ([3]; Table 15, plasma 0.5-4 h) [ng/mL] | SMILES
9 | < 1000 | >80% | >80% | > 50 | < 30 | 1000 to 7940 | – | – | O=C(O)c1cccc(SCc2cccc(C(=O)Nc3ccc(Cl)cc3-c3cc(C(=O)NCc4cccc(C(F)(F)F)c4)ccn3)c2)c1 [Example 8.25, 3-(3-(4-chloro-2-(4-(3-(trifluoromethyl)benzylcarbamoyl)pyridin-2-yl)phenylcarbamoyl)benzylthio)benzoic acid]
10 | < 1000 | >80% | >80% | < 30 | < 10 | < 1000 | – | – | CCN(CC)c1ccc(NC(=O)c2cccc(COCCOCCOCCOCCOCCOCCO)c2)c(-c2cc(C(=O)NCc3cccc(C(F)(F)F)c3)ccn2)c1 [Example 168, 2-(5-(diethylamino)-2-(3-(19-hydroxy-2,5,8,11,14,17-hexaoxanonadecyl)benzamido)phenyl)-N-(3-(trifluoromethyl)benzyl)isonicotinamide]
11 | < 1000 | >80% | 60-80% | – | – | < 1000 | < 30 | < 30 | CN(CCOCCOCCOCCC(=O)O)C(=O)Cc1cccc(SCc2cccc(C(=O)Nc3ccc(Cl)cc3-c3cc(C(=O)N[C@H]4CCCc5ccccc54)ccn3)c2)c1 [Example 239, (S)-1-(3-(3-(4-chloro-2-(4-(1,2,3,4-tetrahydronaphthalen-1-ylcarbamoyl)pyridin-2-yl)phenylcarbamoyl)benzylthio)phenyl)-3-methyl-2-oxo-6,9,12-trioxa-3-azapentadecan-15-oic acid]
12 | < 1000 | >80% | 60-80% | – | – | < 1000 | < 10 | < 10 | O=C(O)CCOCCOCCOCCOCCCc1cccc(C(=O)Nc2ccc(Cl)cc2-c2cc(C(=O)N[C@H]3CCCc4ccccc43)ccn2)c1 [Example 253, (S)-16-(3-(4-(chloro)-2-(4-(1,2,3,4-tetrahydronaphthalen-1-ylcarbamoyl)pyridin-2-yl)phenylcarbamoyl)phenyl)-4,7,10,13-tetraoxahexadecan-1-oic acid]

— US20140023611A1 (priority 2010, published 2014)
